Among the data in patent US10111432B2, “Picolinamide N-oxide compounds with fungicidal activity” (Dow AgroSciences LLC, priority 2016, dated 2018) are pest or weed control values, retold here.

One assay relates to Zymoseptoria tritici. Nature of the assay: Fungicidal activity: leaf blotch of wheat (SEPTTR), disease control on wheat seedlings. The format is in vivo. To be noted: for pest or weed control at 100 ppm: high volume application; for pest or weed control at 121.5 g/ha: low volume application, 121.5 g/H. Here is the method: Technical grades of materials were dissolved in acetone, which were then mixed with nine volumes of water (H2O) containing 110 ppm Triton X-100. The fungicide solutions were applied onto wheat seedlings using an automated booth sprayer to run-off. All sprayed plants were allowed to air dry prior to further handling. All fungicides were evaluated using the aforementioned method for their activity vs. all target diseases, unless stated otherwise. Wheat leaf blotch and brown rust activity were also evaluated using track spray applications, in which case the fungicides were formulated as EC formulations, containing 0.1% Trycol 5941 in the spray solutions. Wheat plants (variety Yuma) were grown from seed in a greenhouse in 50% mineral soil/50% soil-less Metro mix until the first leaf was fully emerged, with 7-10 seedlings per pot. These plants were inoculated with an aqueous spore suspension of Zymoseptoria tritici either prior to or after fungicide treatments. After inoculation the plants were kept in 100% relative humidity (one day in a dark dew chamber followed by two to three days in a lighted dew chamber at 20° C.) to permit spores to germinate and infect the leaf. The plants were then transferred to a greenhouse set at 20° C. for disease to develop. When disease symptoms were fully expressed on the 1st leaves of untreated plants, infection levels were assessed on a scale of 0 to 100 percent disease severity. Percent disease control was calculated using the ratio of disease severity on treated plants relative to untreated plants.

The test system of another assay is Puccinia triticina. Nature of the assay: Fungicidal activity: wheat brown rust (PUCCRT), disease control on wheat seedlings. Type of assay: in vivo. To be noted: for pest or weed control at 100 ppm: high volume application; for pest or weed control at 121.5 g/ha: low volume application, 121.5 g/H. How it is done:
Technical grades of materials were dissolved in acetone, which were then mixed with nine volumes of water (H2O) containing 110 ppm Triton X-100. The fungicide solutions were applied onto wheat seedlings using an automated booth sprayer to run-off. All sprayed plants were allowed to air dry prior to further handling. All fungicides were evaluated using the aforementioned method for their activity vs. all target diseases, unless stated otherwise. Wheat leaf blotch and brown rust activity were also evaluated using track spray applications, in which case the fungicides were formulated as EC formulations, containing 0.1% Trycol 5941 in the spray solutions. Wheat plants (variety Yuma) were grown from seed in a greenhouse in 50% mineral soil/50% soil-less Metro mix until the first leaf was fully emerged, with 7-10 seedlings per pot. These plants were inoculated with an aqueous spore suspension of Puccinia triticina either prior to or after fungicide treatments. After inoculation the plants were kept in a dark dew room at 22° C. with 100% relative humidity overnight to permit spores to germinate and infect the leaf. The plants were then transferred to a greenhouse set at 24° C. for disease to develop. Fungicide formulation, application and disease assessment followed the procedures as described in the Example A. Results of the evaluations are shown below in Table 4.

[1] abbreviates: 24 h, 1 day protectant, read-out: SEPTTR disease control, 1DP, HV activity at 100 ppm.
[2] abbreviates: 24 h, 1 day protectant, read-out: SEPTTR disease control, 1DP, LV activity at 121.5 g/H.
The mark [3] stands for this setting: 72 h, 3 day curative, read-out: SEPTTR disease control, 3DC, HV activity at 100 ppm.
The mark [4] stands for this setting: 72 h, 3 day curative, read-out: SEPTTR disease control, 3DC, LV activity at 121.5 g/H.
Where [5] appears, read: 24 h, 1 day protectant, read-out: PUCCRT disease control, 1DP, HV activity at 100 ppm.
Setting [6] is: 24 h, 1 day protectant, read-out: PUCCRT disease control, 1DP, LV activity at 121.5 g/H.
Where [7] appears, read: 72 h, 3 day curative, read-out: PUCCRT disease control, 3DC, LV activity at 121.5 g/H.
The mark [8] stands for this setting: 72 h, 3 day curative, read-out: PUCCRT disease control, 3DC, HV activity at 100 ppm.

Read-outs that look alike come from different tables or passages of the source.

As for `COc1cc[n+]([O-])c(C(=O)N[C@@H](C)C(=O)O[C@@H](C)C(c2ccc(Cl)c(F)c2)c2ccc(Cl)c(F)c2)c1O` [Compound 6], the pest or weed control at 100 ppm in the assay on Zymoseptoria tritici (setting [1]), in the assay on Zymoseptoria tritici (setting [3]) and in the assay on Puccinia triticina (setting [5]) was above 80% each time. Also, the results for the pest or weed control at 121.5 g/ha in the assay with Zymoseptoria tritici (setting [2]), in the assay on Zymoseptoria tritici (setting [4]) and in the assay on Puccinia triticina (setting [6]) were above 80%, above 80% and at most 80%, respectively.
As to `COc1cc[n+]([O-])c(C(=O)N[C@@H](C)C(=O)O[C@@H](C)C(c2ccc(Cl)c(C)c2)c2ccc(Cl)c(C)c2)c1O` [Compound 7], the pest or weed control at 121.5 g/ha is above 80% in the assay with Zymoseptoria tritici (setting [2]), above 80% in the assay on Zymoseptoria tritici (setting [4]), above 80% with Puccinia triticina (setting [6]) and at most 80% in the assay with Puccinia triticina (setting [7]).
For `CC[C@H](OC(=O)[C@H](C)NC(=O)c1c(O)c(OC)cc[n+]1[O-])[C@H](Oc1ccccc1)C(C)C` [Compound 8], the pest or weed control at 121.5 g/ha in the assay with Zymoseptoria tritici (setting [4]) was at most 80%; in the assay on Puccinia triticina (setting [6]), at most 80%; in the assay with Puccinia triticina (setting [7]), above 80%.
Regarding `COc1cc[n+]([O-])c(C(=O)N[C@@H](C)C(=O)O[C@H](C(C)C)[C@H](C)Oc2ccccc2)c1O` [Compound 10], the pest or weed control at 100 ppm is at most 80% with Zymoseptoria tritici (setting [1]), above 80% with Puccinia triticina (setting [5]) and above 80% with Puccinia triticina (setting [8]). For the same molecule, the pest or weed control at 121.5 g/ha with Zymoseptoria tritici (setting [2]), in the assay with Puccinia triticina (setting [6]) and in the assay with Puccinia triticina (setting [7]) was above 80% in each case.
As for `COc1cc[n+]([O-])c(C(=O)N[C@@H](C)C(=O)O[C@@H](C)C(c2ccc(F)c(F)c2OC)c2ccc(F)c(F)c2OC)c1O` [Compound 12], the pest or weed control at 100 ppm in the assay on Zymoseptoria tritici (setting [1]) is above 80%; in the assay on Zymoseptoria tritici (setting [3]) it was above 80%; in the assay with Puccinia triticina (setting [5]) it was above 80%; in the assay with Puccinia triticina (setting [8]), at most 80%. Besides, the pest or weed control at 121.5 g/ha in the assay on Zymoseptoria tritici (setting [2]) was above 80%; in the assay with Zymoseptoria tritici (setting [4]), above 80%; in the assay with Puccinia triticina (setting [6]), above 80%; in the assay on Puccinia triticina (setting [7]), at most 80%.
As to `COc1cc[n+]([O-])c(C(=O)N[C@@H](C)C(=O)O[C@@H](C)C(c2ccc(F)cc2)c2ccc(F)cc2)c1O` [Compound 13], the pest or weed control at 100 ppm in the assay with Zymoseptoria tritici (setting [1]), with Zymoseptoria tritici (setting [3]), in the assay on Puccinia triticina (setting [5]) and in the assay on Puccinia triticina (setting [8]) was above 80% in each case. In addition, the pest or weed control at 121.5 g/ha in the assay on Zymoseptoria tritici (setting [2]) is above 80%; in the assay with Zymoseptoria tritici (setting [4]) it was above 80%; in the assay with Puccinia triticina (setting [6]) it was above 80%; in the assay with Puccinia triticina (setting [7]), at most 80%.
For the molecule `COc1cc[n+]([O-])c(C(=O)N[C@@H](C)C(=O)O[C@@H](C)C(c2ccc(C)c(C)c2)c2ccc(C)c(C)c2)c1O` [Compound 15], the pest or weed control at 121.5 g/ha with Zymoseptoria tritici (setting [2]) was above 80%; with Zymoseptoria tritici (setting [4]) it was above 80%; in the assay with Puccinia triticina (setting [6]) it was at most 80%; in the assay with Puccinia triticina (setting [7]) it was at most 80%.
As to `COc1cc[n+]([O-])c(C(=O)N[C@@H](C)C(=O)O[C@@H](C)C(c2ccc(F)c(C)c2)c2ccc(F)c(C)c2)c1O` [Compound 17], the pest or weed control at 121.5 g/ha in the assay with Zymoseptoria tritici (setting [2]) was above 80%; in the assay on Zymoseptoria tritici (setting [4]), above 80%; in the assay on Puccinia triticina (setting [6]) it was at most 80%; in the assay with Puccinia triticina (setting [7]), at most 80%.
For `COc1cc(C(c2ccc(C)c(OC)c2)[C@H](C)OC(=O)[C@H](C)NC(=O)c2c(O)c(OC)cc[n+]2[O-])ccc1C` [Compound 18], the pest or weed control at 121.5 g/ha in the assay on Zymoseptoria tritici (setting [2]) is above 80%; in the assay on Zymoseptoria tritici (setting [4]) it was above 80%; in the assay with Puccinia triticina (setting [6]) it was at most 80%; in the assay on Puccinia triticina (setting [7]), at most 80%.
Turning to `COc1cc[n+]([O-])c(C(=O)N[C@@H](C)C(=O)O[C@@H](C)C(c2ccc(C)c(F)c2)c2ccc(C)c(F)c2)c1O` [Compound 19], the pest or weed control at 121.5 g/ha in the assay with Zymoseptoria tritici (setting [2]) was above 80%; with Zymoseptoria tritici (setting [4]), above 80%; in the assay with Puccinia triticina (setting [6]), at most 80%; in the assay with Puccinia triticina (setting [7]), at most 80%.
Take `COc1cc[n+]([O-])c(C(=O)N[C@@H](C)C(=O)O[C@@H](C)C(c2ccc(F)c(F)c2)c2ccc(F)c(F)c2)c1O` [Compound 21]: the pest or weed control at 121.5 g/ha is above 80% with Zymoseptoria tritici (setting [2]), above 80% in the assay on Zymoseptoria tritici (setting [4]) and at most 80% in the assay on Puccinia triticina (setting [7]).
Take `COc1cc[n+]([O-])c(C(=O)N[C@@H](C)C(=O)O[C@@H](C)[C@@H](c2ccccc2)c2ccc(F)cc2C)c1O` [Compound 22]: the pest or weed control at 100 ppm in the assay on Zymoseptoria tritici (setting [1]), in the assay with Zymoseptoria tritici (setting [3]), in the assay on Puccinia triticina (setting [5]) and in the assay with Puccinia triticina (setting [8]) was above 80% throughout. For the same molecule, the pest or weed control at 121.5 g/ha with Zymoseptoria tritici (setting [2]), with Zymoseptoria tritici (setting [4]), in the assay on Puccinia triticina (setting [6]) and with Puccinia triticina (setting [7]) was above 80% each time.
For `COc1cc(F)ccc1[C@@H](c1ccc(F)c(C)c1)[C@H](C)OC(=O)[C@H](C)NC(=O)c1c(O)c(OC)cc[n+]1[O-]` [Compound 23], the pest or weed control at 100 ppm in the assay on Zymoseptoria tritici (setting [1]), with Zymoseptoria tritici (setting [3]), in the assay on Puccinia triticina (setting [5]) and in the assay with Puccinia triticina (setting [8]) was above 80% throughout.
Regarding `COc1cc(F)ccc1[C@@H](c1ccc(F)cc1)[C@H](C)OC(=O)[C@H](C)NC(=O)c1c(O)c(OC)cc[n+]1[O-]` [Compound 24], the pest or weed control at 100 ppm in the assay with Zymoseptoria tritici (setting [1]), in the assay on Zymoseptoria tritici (setting [3]), with Puccinia triticina (setting [5]) and in the assay on Puccinia triticina (setting [8]) was above 80% each time. The pest or weed control at 121.5 g/ha is above 80% in the assay with Zymoseptoria tritici (setting [2]), above 80% with Zymoseptoria tritici (setting [4]), above 80% with Puccinia triticina (setting [6]) and at most 80% with Puccinia triticina (setting [7]).
`COc1cc[n+]([O-])c(C(=O)N[C@@H](C)C(=O)O[C@@H](C)C(c2cccc(C)c2)c2cccc(C)c2)c1O` [Compound 25]: the pest or weed control at 100 ppm in the assay on Zymoseptoria tritici (setting [1]), with Zymoseptoria tritici (setting [3]), with Puccinia triticina (setting [5]) and in the assay on Puccinia triticina (setting [8]) was above 80% throughout. Moreover, the pest or weed control at 121.5 g/ha with Zymoseptoria tritici (setting [2]), in the assay with Zymoseptoria tritici (setting [4]), in the assay on Puccinia triticina (setting [6]) and in the assay on Puccinia triticina (setting [7]) was above 80% each time.
`COc1ccc(C(c2ccc(OC)cc2)[C@H](C)OC(=O)[C@H](C)NC(=O)c2c(O)c(OC)cc[n+]2[O-])cc1` [Compound 26]: the pest or weed control at 100 ppm in the assay with Zymoseptoria tritici (setting [1]), in the assay with Zymoseptoria tritici (setting [3]), with Puccinia triticina (setting [5]) and in the assay with Puccinia triticina (setting [8]) was above 80% each time.
For `COc1cc[n+]([O-])c(C(=O)N[C@@H](C)C(=O)O[C@@H](C)[C@H](c2ccc(C)cc2)c2ccc(C)cc2F)c1O` [Compound 28], the pest or weed control at 100 ppm with Zymoseptoria tritici (setting [1]), with Zymoseptoria tritici (setting [3]) and with Puccinia triticina (setting [5]) was above 80% throughout. Further, the pest or weed control at 121.5 g/ha is above 80% with Zymoseptoria tritici (setting [2]), above 80% with Zymoseptoria tritici (setting [4]), above 80% in the assay with Puccinia triticina (setting [6]) and at most 80% in the assay with Puccinia triticina (setting [7]).
Regarding `COc1cc[n+]([O-])c(C(=O)N[C@@H](C)C(=O)O[C@@H](C)[C@@H](c2ccc(F)cc2)c2ccc(F)cc2C)c1O` [Compound 29], the pest or weed control at 100 ppm with Zymoseptoria tritici (setting [1]), in the assay on Zymoseptoria tritici (setting [3]), with Puccinia triticina (setting [5]) and in the assay with Puccinia triticina (setting [8]) was above 80% throughout. Also, the pest or weed control at 121.5 g/ha with Zymoseptoria tritici (setting [2]) was above 80%; in the assay with Zymoseptoria tritici (setting [4]) it was above 80%; in the assay on Puccinia triticina (setting [6]), above 80%; with Puccinia triticina (setting [7]) it was at most 80%.
